Experimental data reported in patent US11725037B2, “Peptide dual agonists of GIPR and GLP2R” (University of Copenhagen, priority 2017, dated 2023).
Ends that are not written are not given here.

Legend:
human GIP receptor = target: T1, human GIP receptor (Homo sapiens, UniProt P48546); assay: cAMP accumulation assay (HitHunter cAMP XS) in transiently transfected COS-7 cells expressing the human GIP receptor; format: cell-based; details: for Emax at 10 µM: COS-7, read-out: Emax (10 μM), GIP receptor; for fold (fold change of native GIP), GIP receptor: EC50 relative to native GIP; for EC50: logEC50, GIP receptor, log value, cAMP, COS-7
T1 construct: host or cells: COS-7 (transient, calcium phosphate; pCMV-Script vector)
T1 sequence (P48546 22-466): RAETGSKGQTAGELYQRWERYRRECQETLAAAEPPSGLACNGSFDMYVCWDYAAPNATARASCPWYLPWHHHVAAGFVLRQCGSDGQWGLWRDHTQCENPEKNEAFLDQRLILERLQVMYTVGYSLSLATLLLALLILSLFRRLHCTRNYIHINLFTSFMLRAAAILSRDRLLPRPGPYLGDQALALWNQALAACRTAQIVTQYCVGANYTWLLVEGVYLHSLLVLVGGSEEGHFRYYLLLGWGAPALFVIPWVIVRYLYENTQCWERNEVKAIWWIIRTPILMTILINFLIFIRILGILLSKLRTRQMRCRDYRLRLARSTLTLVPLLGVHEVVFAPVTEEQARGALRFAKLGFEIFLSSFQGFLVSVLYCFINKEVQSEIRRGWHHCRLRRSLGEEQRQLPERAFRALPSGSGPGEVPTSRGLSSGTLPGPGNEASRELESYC
Protocol: (§1) The day after, the cells were washed twice with Hepes buffered saline (HBS) buffer and incubated with HBS and 1 mM 3-isobutyl-1-methylxanthine (IBMX) for 30 min at 37° C. Ligands were added and incubated for 30 min at 37° C. The HitHunter™ cAMP XS assay (DiscoveRx) was carried out according to the manufacturer's instructions.

human GLP-2 receptor = target: T2, human GLP-2 receptor (Homo sapiens, UniProt O95838); assay: cAMP accumulation assay (HitHunter cAMP XS) in transiently transfected COS-7 cells expressing the human GLP-2 receptor; format: cell-based; details: for Emax at 10 µM: COS-7, read-out: Emax (10 μM), GLP-2 receptor; for fold (fold change of native GLP-2), GLP-2 receptor: EC50 relative to native GLP-2; for EC50: cAMP, COS-7
T2 construct: host or cells: COS-7 (transient, calcium phosphate; pCMV-Script vector)
T2 sequence (O95838 1-553): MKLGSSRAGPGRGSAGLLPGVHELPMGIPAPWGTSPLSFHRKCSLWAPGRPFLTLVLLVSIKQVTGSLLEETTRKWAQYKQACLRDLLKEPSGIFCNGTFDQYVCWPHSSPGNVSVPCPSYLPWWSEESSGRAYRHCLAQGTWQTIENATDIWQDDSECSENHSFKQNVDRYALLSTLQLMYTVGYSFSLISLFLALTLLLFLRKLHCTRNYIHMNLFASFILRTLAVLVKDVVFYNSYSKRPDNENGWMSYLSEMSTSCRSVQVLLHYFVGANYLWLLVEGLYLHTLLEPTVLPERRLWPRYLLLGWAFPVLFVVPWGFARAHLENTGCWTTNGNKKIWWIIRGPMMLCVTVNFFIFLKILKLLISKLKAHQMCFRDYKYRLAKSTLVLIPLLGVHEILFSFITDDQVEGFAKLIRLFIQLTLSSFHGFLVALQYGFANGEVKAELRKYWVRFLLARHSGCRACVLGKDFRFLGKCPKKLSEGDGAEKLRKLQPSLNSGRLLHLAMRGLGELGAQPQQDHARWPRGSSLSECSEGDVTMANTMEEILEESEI
Protocol: as §1

[1] = logEC50, GLP-2 receptor, Table 2

Row | Emax at 10 µM (human GIP receptor) | fold (fold change of native GIP), GIP receptor (human GIP receptor; Table 2) | Emax at 10 µM (human GLP-2 receptor) | fold (fold change of native GLP-2), GLP-2 receptor (human GLP-2 receptor; Table 2) | EC50 (human GLP-2 receptor; [1]) | EC50 (human GIP receptor; Table 2) | EC50 (human GLP-2 receptor; EC50(nM), GLP-2 receptor, Table 2) | fold (fold change of native GIP), GIP receptor (human GIP receptor; Table 1) | EC50 (human GIP receptor; Table 1) | fold (fold change of native GLP-2), GLP-2 receptor (human GLP-2 receptor; Table 1) | EC50 (human GLP-2 receptor; logEC50, GLP-2 receptor, Table 1) | Compound
1 | 100% | 7.1 fold | 73% | 30 fold | 36.3 nM |  |  |  |  |  |  | CCCCCCCCCCCC(=O)NCCCC[C@H](NC(=O)[C@@H](NC(=O)[C@H](CCC(N)=O)NC(=O)[C@@H](NC(=O)[C@H](CC(C)C)NC(=O)[C@H](Cc1c[nH]c2ccccc12)NC(=O)[C@H](CC(N)=O)NC(=O)[C@@H](NC(=O)[C@H](Cc1ccccc1)NC(=O)[C@H](CC(=O)O)NC(=O)[C@H](CCCNC(=N)N)NC(=O)[C@H](C)NC(=O)[C@H](C)NC(=O)[C@H](CC(C)C)NC(=O)[C@H](CC(N)=O)NC(=O)[C@H](CC(=O)O)NC(=O)[C@H](CC(C)C)NC(=O)[C@@H](NC(=O)[C@@H](NC(=O)[C@H](CO)NC(=O)[C@H](Cc1ccc(O)cc1)NC(=O)[C@H](CC(=O)O)NC(=O)[C@H](CO)NC(=O)[C@@H](NC(=O)[C@H](Cc1ccccc1)NC(=O)[C@@H](NC(=O)CNC(=O)[C@H](CC(=O)O)NC(=O)[C@H](C)NC(=O)[C@@H](N)Cc1c[nH]cn1)[C@@H](C)O)[C@@H](C)CC)[C@@H](C)O)[C@@H](C)CC)[C@@H](C)CC)[C@@H](C)CC)[C@@H](C)O)C(=O)N[C@H](C(=O)N[C@H](C(=O)N[C@@H](CCCCN)C(=O)O)[C@@H](C)O)[C@@H](C)CC [Co-agonist 30]
2 | 91% | 19 fold | 91% | 89 fold |  |  |  |  |  |  |  | CCCCCCCCCCCCCCCC(=O)NCCCC[C@H](NC(=O)[C@@H](NC(=O)[C@H](CCC(N)=O)NC(=O)[C@@H](NC(=O)[C@H](CC(C)C)NC(=O)[C@H](Cc1c[nH]c2ccccc12)NC(=O)[C@H](CC(N)=O)NC(=O)[C@@H](NC(=O)[C@H](Cc1ccccc1)NC(=O)[C@H](CC(=O)O)NC(=O)[C@H](CCCNC(=N)N)NC(=O)[C@H](C)NC(=O)[C@H](C)NC(=O)[C@H](CC(C)C)NC(=O)[C@H](CC(N)=O)NC(=O)[C@H](CC(=O)O)NC(=O)[C@H](CC(C)C)NC(=O)[C@@H](NC(=O)[C@@H](NC(=O)[C@H](CO)NC(=O)[C@H](Cc1ccc(O)cc1)NC(=O)[C@H](CC(=O)O)NC(=O)[C@H](CO)NC(=O)[C@@H](NC(=O)[C@H](Cc1ccccc1)NC(=O)[C@@H](NC(=O)CNC(=O)[C@H](CC(=O)O)NC(=O)[C@H](C)NC(=O)[C@@H](N)Cc1c[nH]cn1)[C@@H](C)O)[C@@H](C)CC)[C@@H](C)O)[C@@H](C)CC)[C@@H](C)CC)[C@@H](C)CC)[C@@H](C)O)C(=O)N[C@H](C(=O)N[C@H](C(=O)N[C@@H](CCCCN)C(=O)O)[C@@H](C)O)[C@@H](C)CC [Co-agonist 31]
3 | 100% | 1.7 fold | 91% | 5.1 fold |  | 0.155 nM | 6.2 nM |  |  |  |  | CCCCCCCCCCCC(=O)NCCCC[C@H](NC(=O)[C@@H](NC(=O)[C@@H](NC(=O)[C@H](CCCCN)NC(=O)[C@@H](NC(=O)[C@H](CCC(N)=O)NC(=O)[C@@H](NC(=O)[C@H](CC(C)C)NC(=O)[C@H](Cc1c[nH]c2ccccc12)NC(=O)[C@H](CC(N)=O)NC(=O)[C@@H](NC(=O)[C@H](Cc1ccccc1)NC(=O)[C@H](CC(=O)O)NC(=O)[C@H](CCCNC(=N)N)NC(=O)[C@H](C)NC(=O)[C@H](C)NC(=O)[C@H](CC(C)C)NC(=O)[C@H](CC(N)=O)NC(=O)[C@H](CC(=O)O)NC(=O)[C@H](CC(C)C)NC(=O)[C@@H](NC(=O)[C@@H](NC(=O)[C@H](CO)NC(=O)[C@H](Cc1ccc(O)cc1)NC(=O)[C@H](CC(=O)O)NC(=O)[C@H](CO)NC(=O)[C@@H](NC(=O)[C@H](Cc1ccccc1)NC(=O)[C@@H](NC(=O)CNC(=O)[C@H](CC(=O)O)NC(=O)[C@H](C)NC(=O)[C@@H](N)Cc1c[nH]cn1)[C@@H](C)O)[C@@H](C)CC)[C@@H](C)O)[C@@H](C)CC)[C@@H](C)CC)[C@@H](C)CC)[C@@H](C)O)[C@@H](C)CC)[C@@H](C)O)C(=O)O [Co-agonist 32]
4 | 100% | 3.6 fold | 82% | 11 fold | 12.9 nM | 0.316 nM |  |  |  |  |  | CCCCCCCCCCCCCCCC(=O)NCCCC[C@H](NC(=O)[C@@H](NC(=O)[C@@H](NC(=O)[C@H](CCCCN)NC(=O)[C@@H](NC(=O)[C@H](CCC(N)=O)NC(=O)[C@@H](NC(=O)[C@H](CC(C)C)NC(=O)[C@H](Cc1c[nH]c2ccccc12)NC(=O)[C@H](CC(N)=O)NC(=O)[C@@H](NC(=O)[C@H](Cc1ccccc1)NC(=O)[C@H](CC(=O)O)NC(=O)[C@H](CCCNC(=N)N)NC(=O)[C@H](C)NC(=O)[C@H](C)NC(=O)[C@H](CC(C)C)NC(=O)[C@H](CC(N)=O)NC(=O)[C@H](CC(=O)O)NC(=O)[C@H](CC(C)C)NC(=O)[C@@H](NC(=O)[C@@H](NC(=O)[C@H](CO)NC(=O)[C@H](Cc1ccc(O)cc1)NC(=O)[C@H](CC(=O)O)NC(=O)[C@H](CO)NC(=O)[C@@H](NC(=O)[C@H](Cc1ccccc1)NC(=O)[C@@H](NC(=O)CNC(=O)[C@H](CC(=O)O)NC(=O)[C@H](C)NC(=O)[C@@H](N)Cc1c[nH]cn1)[C@@H](C)O)[C@@H](C)CC)[C@@H](C)O)[C@@H](C)CC)[C@@H](C)CC)[C@@H](C)CC)[C@@H](C)O)[C@@H](C)CC)[C@@H](C)O)C(=O)O [Co-agonist 33]
5 | 99% | 5.4 fold | 68% | 1.9 fold | 2.34 nM |  |  |  |  |  |  | CCCCCCCCCCCC(=O)NCCCC[C@H](NC(=O)CNC(=O)[C@H](CCCCN)NC(=O)[C@@H](NC(=O)[C@H](CCC(N)=O)NC(=O)[C@@H](NC(=O)[C@H](CC(C)C)NC(=O)[C@H](Cc1c[nH]c2ccccc12)NC(=O)[C@H](CC(N)=O)NC(=O)[C@@H](NC(=O)[C@H](Cc1ccccc1)NC(=O)[C@H](CC(=O)O)NC(=O)[C@H](CCCNC(=N)N)NC(=O)[C@H](C)NC(=O)[C@H](C)NC(=O)[C@H](CC(C)C)NC(=O)[C@H](CC(N)=O)NC(=O)[C@H](CC(=O)O)NC(=O)[C@H](CC(C)C)NC(=O)[C@@H](NC(=O)[C@@H](NC(=O)[C@H](CO)NC(=O)[C@H](Cc1ccc(O)cc1)NC(=O)[C@H](CC(=O)O)NC(=O)[C@H](CO)NC(=O)[C@@H](NC(=O)[C@H](Cc1ccccc1)NC(=O)[C@@H](NC(=O)CNC(=O)[C@H](CC(=O)O)NC(=O)[C@H](C)NC(=O)[C@@H](N)Cc1c[nH]cn1)[C@@H](C)O)[C@@H](C)CC)[C@@H](C)O)[C@@H](C)CC)[C@@H](C)CC)[C@@H](C)CC)[C@@H](C)O)C(=O)N[C@@H](CCCCN)C(=O)O [Co-agonist 35]
6 | 100% | 8.9 fold | 71% | 17 fold | 20 nM |  |  |  |  |  |  | CCCCCCCCCCCCCCCC(=O)NCCCC[C@H](NC(=O)CNC(=O)[C@H](CCCCN)NC(=O)[C@@H](NC(=O)[C@H](CCC(N)=O)NC(=O)[C@@H](NC(=O)[C@H](CC(C)C)NC(=O)[C@H](Cc1c[nH]c2ccccc12)NC(=O)[C@H](CC(N)=O)NC(=O)[C@@H](NC(=O)[C@H](Cc1ccccc1)NC(=O)[C@H](CC(=O)O)NC(=O)[C@H](CCCNC(=N)N)NC(=O)[C@H](C)NC(=O)[C@H](C)NC(=O)[C@H](CC(C)C)NC(=O)[C@H](CC(N)=O)NC(=O)[C@H](CC(=O)O)NC(=O)[C@H](CC(C)C)NC(=O)[C@@H](NC(=O)[C@@H](NC(=O)[C@H](CO)NC(=O)[C@H](Cc1ccc(O)cc1)NC(=O)[C@H](CC(=O)O)NC(=O)[C@H](CO)NC(=O)[C@@H](NC(=O)[C@H](Cc1ccccc1)NC(=O)[C@@H](NC(=O)CNC(=O)[C@H](CC(=O)O)NC(=O)[C@H](C)NC(=O)[C@@H](N)Cc1c[nH]cn1)[C@@H](C)O)[C@@H](C)CC)[C@@H](C)O)[C@@H](C)CC)[C@@H](C)CC)[C@@H](C)CC)[C@@H](C)O)C(=O)N[C@@H](CCCCN)C(=O)O [Co-agonist 36]
7 | 94% |  | 90% |  |  |  |  | 27 fold | 2.34 nM | 9.2 fold | 10.7 nM | HADGTFIDDYSTILDNLAARDFINWLIQTKITD [Co-agonist 14]
